Measured values taken from patent US12440500B2, “Phytoecdysones and the derivatives thereof for use in the treatment of neuromuscular diseases” (BIOPHYTIS, priority 2019, dated 2025).

How the values were obtained:
muscles = details: rats in vivo; cited from earlier work
murine myotubes C2C12 = murine myotubes C2C12 in vitro; cited from earlier work
[1] = young athletes; cited from earlier work
[2] = test system: SMA mice (FVB/NRj-SmnΔ7/Δ7 huSMN2+/+ 2 copies); test: Phenotypic analysis: weight and survival of severe SMA mice under daily gavage; assay type: in vivo, mouse
Source text: A severe SMA mouse model was used on an FVB/NRj gene pool, characterized by the invalidation of the exon 7 of the murine gene Smn and expressing 2 copies of the human transgene SMN2 (Smn^Δ7/Δ7; huSMN2^+/+) (Hsieh et al., 2000). The mice resulting from these crossings having the “FVB/NRj-Smn^Δ7/Δ7 huSMN2^+/+ 2 copies” genotype are described as “SMA”. These mice are characterized by progressive growth failure which is observed starting from 4 days post-natal and have a degeneration of about 50% of the motor neurons of the ventral horn of the spinal cord at the end of life, progressive muscular atrophy and an average lifespan of about 12 days (Hsieh et al., 2000). The mice having the “FVB/NRj-Smn^+/Δ7 huSMN2^++ 2 copies” genotype have no particular phenotype and are used as so-called “control” mice. The mice were treated via daily gavage of a dose of 50 mg/kg, either with the molecule BIO101 complexed to a vehicle (cyclodextrin in the present case), or with the vehicle alone (VH). The weight and the survival were analyzed on a daily basis until P11. In the rest of the description, n corresponds to the size of the sample and p corresponds to the “p value” used to quantify the statistical significance of a result.
The same type II murine model was used to characterize the phenotypic effects of the molecule BIO103 in a severe SMA model. The mice were treated via daily gavage of a dose of 50 mg/kg, either with the molecule BIO103 complexed with the vehicle (cyclodextrin in the present case), or with the vehicle alone (VH). The weight and the survival were analyzed on a daily basis until P11.

[3] = test system: muscles Soleus, Plantaris and Tibialis of SMA mice; test: Histological analysis of muscle cross-sections (Hematoxylin-Eosin): number and cross-section surface of muscle fibers; assay type: in vivo, mouse
Procedure: At P11, one hour after their last gavage, the treated mice were anaesthetized with pentobarbital 1% at 6 μL/g of mouse then the extensor muscles Soleus, with a mixed typology, extensor Plantaris, with a fast typology, and flexor Tibialis, with a fast typology, were sampled in order to conduct histological or molecular studies. After sampling, the muscles Soleus, Plantaris and Tibialis were included individually in a preservation medium then frozen in cooled isopentane. For each muscle, medial cross-sections 10 μm thick were realized. These sections were stained with Hematoxyline-Eosin, dehydrated and mounted in an inclusion medium. The images of these sections were taken with a microscope (with a magnification ×200). In order to obtain images with an impression of relief, the differential interference contrast technique was used. From these images, the number of muscle fibers of each muscle and the cross-section surface of 20% of these fibers were counted using image processing software (FIG. 2).

Row | SMILES | effects on protein syntheses in muscles (muscles) | effects on protein syntheses (murine myotubes C2C12) | muscle mass [1] | survival at P11 ([2]; 50 mg/kg daily gavage P0 to P11) [%] | loss of weight of the animals ([2]; 50 mg/kg daily gavage from birth to P11, versus vehicle) | atrophy of the muscle fibers (cross-section surface) in relation to healthy control mice ([3]; Plantaris, P11, SMA mice treated P0 to P11 (SMA vehicle 46%)) [%] | atrophy of the muscle fibers (cross-section surface) in relation to healthy control mice ([3]; Soleus, P11, SMA mice treated P0 to P11 (SMA vehicle 50.2%)) [%] | atrophy of the muscle fibers (cross-section surface) in relation to healthy control mice ([3]; Tibialis, P11, SMA mice treated P0 to P11 (SMA vehicle 56.1%)) [%] | proportion of fibers with cross-section surface greater than 400 μm^2 ([3]; Tibialis, versus SMA vehicle) | proportion of small fibers with cross-section surface less than 200 μm^2 ([3]; Tibialis, versus SMA vehicle, p<0.05)
1 | CC(C)(O)CC[C@@H](O)[C@](C)(O)[C@H]1CC[C@@]2(O)C3=CC(=O)[C@@H]4C[C@@H](O)[C@@H](O)C[C@]4(C)[C@H]3CC[C@]12C [20-hydroxyecdysone] | stimulating effects | stimulating effects | favors the increase |  |  |  |  |  |  | 
2 | CCSCC(=O)[C@H]1CC[C@@]2(O)C3=CC(=O)[C@@H]4C[C@@H](O)[C@@H](O)C[C@]4(C)C3CC[C@]12C (stereo partly drawn) [BIO103, (2S,3R,5R,10R,13R,14S,17S)-17-(2-ethylsulfanylacetyl)-2,3,14-trihydroxy-10,13-dimethyl-2,3,4,5,9,11,12,15,16,17-decahydro-1H-cyclopenta[a]phenanthren-6-one] |  |  |  | 66.6 | tends to limit | 15.3 | 37.1 | 22.1 | significant increase | decreases significantly
